Assay results: patent US20070142304A1, “Diphenylazetidinone derivatives possessing chloesterol absorption inhibitory activity” (priority 2003, published 2007)

Test system: 14C-cholesterol absorption
Assay: In Vivo Testing of Cholesterol Absorption Inhibitors (A)
Conditions: 5 μmol/kg by gavage, C57BL/6 female mice, procedure A
Protocol: In Vivo Testing of Cholesterol Absorption Inhibitors (A)
C57BL/6 female mice were maintained on regular chow diet and housed in individual cages to collect faeces. Mice were fasted for 3 hours and then gavaged with vehicle or compound. Half an hour later the mice were gavaged with radiolabelled cholesterol. Six hours after the ^14C-cholesterol gavage blood samples were taken via the tail and plasma prepared to determine how much cholesterol were absorbed. 24 hours after the gavage of ^14C-cholesterol the mice were bled and plasma were prepared for analysis. Faeces were collected for 24 hours to assess absorption efficiency.

CC(C)CC(NC(=O)COc1ccc(C2C(CCC(O)c3ccc(F)cc3)C(=O)N2c2ccc(F)cc2)cc1)C(=O)NC(Cc1ccccc1)C(=O)O [Example 3, 1-(4-Fluorophenyl)-3-(R)-[3-(4-fluorophenyl)-3-hydroxypropyl]-4-(S)-{4-[N-((R)-1-{N-[1-(R)-(carboxy)-2-(phenyl)ethyl]carbamoyl}-3-methylbutyl)carbamoylmethoxy]phenyl}azetidin-2-one]
inhibition of 14C-cholesterol absorption: 75%

O=C(COc1ccc(C2C(CCC(O)c3ccc(F)cc3)C(=O)N2c2ccc(F)cc2)cc1)NC(Cc1ccccc1)C(=O)NC(CO)C(=O)O [Example 4, 1-(4-Fluorophenyl)-3-(R)-[3-(4-fluorophenyl)-3-hydroxypropyl]-4-(S)-[4-(N-{1-(R)-[N-(1-(S)-carboxy-2-hydroxyethyl)carbamoyl]-2-phenylethyl}carbamoylmethoxy)phenyl]azetidin-2-one]
inhibition of 14C-cholesterol absorption: 58%
